# How the values were obtained:
# [1] = target: T1, pre-accumulated 3xFLAG-DYRK1A (Homo sapiens, UniProt Q13627); assay: Pre-accumulated DYRK1A after cycloheximide, Western blot in HEK293 cells; type: cell-based; details: cycloheximide 1 mg/mL pre-treatment, CaNDY 2 µM, 0-24 h
# T1 construct: F2A peptide linking to EGFP (2A skipping releases EGFP; a 2A remnant may stay on DYRK1A) (C); expressed in transfected cells; host or cells: HEK293
# Procedure: Western blot analysis was performed using the antibodies described above. In brief, total cell lysates were separated by SDS-PAGE (5–20% gels; ATTO, Tokyo, Japan) under reducing conditions and then transferred to a PVDF membrane (PALL, SP, Brazil). Antibody reactions were performed with Can Get Signal® Immunoreaction Enhancer Solution (Toyobo). Peroxidase activities on the membrane were visualized with ECL Western Blotting Detection Reagents (GE Healthcare) or ImmunoStar® LD (Wako Pure Chemical Industries, Osaka, Japan), and a ChemiDoc^TM MP Imaging System (Bio-Rad, Hercules, CA, USA).
# (§1) Targeting the DYRK1A/CDC37 complex
# HEK293 cells were transfected with an expression vector for 3xFLAG-DYRK1A. At 48 h after transfection, the cells were pre-treated with 1 mg/mL cycloheximide (CHX) to stop protein synthesis, and then treated with CaNDY (2 µM) for the indicated time (0-24 h). The total cell lysates were subjected to SDS-PAGE followed by Western blot analysis.
# (§2) (1 picture or pasted object on this page, not shown here)
# [2] = target: T2, PAK1 (Homo sapiens, UniProt Q13153); assay: Kinase panel, CaNDY 1 µM; type: biochemical; details: CaNDY 1 µM relative to DMSO
# T2 construct: purchased Carna Biosciences
# [3] = target: T3, ROS (Homo sapiens, UniProt P08922); assay: Kinase panel, CaNDY 1 µM; type: biochemical; details: CaNDY 1 µM relative to DMSO
# T3 construct: purchased Carna Biosciences
# [4] = target: T4, MAP2K5_Cascade (Homo sapiens, UniProt Q13163); assay: Kinase panel, CaNDY 1 µM; type: biochemical; details: CaNDY 1 µM relative to DMSO
# T4 construct: purchased Carna Biosciences
# [5] = test system: mRNA coding for DYRK1A; assay: Reverse transcription and quantitative PCR in HEK293 cells; type: cell-based; details: CaNDY 2 µM, four days
# Procedure: Total RNA of the cells was isolated using Sepasol-RNA I Super G (Nacalai Tesque), and then subjected to reverse transcription with Prime Script RTase (Takara Bio). Realtime PCR was performed with FastStart Universal SYBR Green Master (Rox) (Roche Diagnostics, Basel, Switzerland) using StepOnePlus Real-Time PCR System (Applied Biosystems, Life technologies). The nucleotide sequences of the primers are as follows: the forward primer for DYRK1A, 5′-[…]-3′; the reverse primer for DYRK1A, 5′-[…]-3′; the forward primer for GAPDH, 5′-[…]-3′; and the reverse primer for GAPDH, 5′-[…]-3′.
# as §1
# Figure S6. Expression of endogenous DYRK1A mRNA in HEK293 cells treated with
# HEK293 cells were cultured in the presence of CaNDY (2 µM) for four days, and subjected to
# reverse transcription followed by quantitative PCR analysis. Bar graphs show means ± SD (n =
# as §2
# [6] = target: T5, INSR (Homo sapiens, UniProt P06213); assay: Kinase panel, CaNDY 1 µM; type: biochemical; details: CaNDY 1 µM relative to DMSO
# T5 construct: purchased Carna Biosciences
# [7] = target: T6, PDHK4 (Homo sapiens, UniProt Q16654); assay: Kinase panel, CaNDY 1 µM; type: biochemical; details: CaNDY 1 µM relative to DMSO
# T6 construct: purchased Carna Biosciences
# [8] = target: T7, MAP3K5_Cascade (Homo sapiens, UniProt Q99683); assay: Kinase panel, CaNDY 1 µM; type: biochemical; details: CaNDY 1 µM relative to DMSO
# T7 construct: purchased Carna Biosciences
# [9] = target: T8, FER (Homo sapiens, UniProt P16591); assay: Kinase panel, CaNDY 1 µM; type: biochemical; details: CaNDY 1 µM relative to DMSO
# T8 construct: purchased Carna Biosciences
# [10] = target: T9, IRR (Homo sapiens, UniProt P14616); assay: Kinase panel, CaNDY 1 µM; type: biochemical; details: CaNDY 1 µM relative to DMSO
# T9 construct: purchased Carna Biosciences
# [11] = target: T10, p38γ (Homo sapiens, UniProt P53778); assay: Kinase panel, CaNDY 1 µM; type: biochemical; details: CaNDY 1 µM relative to DMSO
# T10 construct: purchased Carna Biosciences
# [12] = target: T11, FGFR4(N535K) (Homo sapiens, UniProt P22455, N535K); assay: Kinase panel, CaNDY 1 µM; type: biochemical; details: CaNDY 1 µM relative to DMSO
# T11 construct: purchased Carna Biosciences
# [13] = target: T12, PDGFRα(T674I) (Homo sapiens, UniProt P16234, T674I); assay: Kinase panel, CaNDY 1 µM; type: biochemical; details: CaNDY 1 µM relative to DMSO
# T12 construct: purchased Carna Biosciences
# [14] = target: T13, CLK2 (Homo sapiens, UniProt P49760); assay: Kinase panel, CaNDY 1 µM; type: biochemical
# T13 construct: purchased Carna Biosciences
# [15] = target: T14, MLK2_Cascade (Homo sapiens, UniProt Q02779); assay: Kinase panel, CaNDY 1 µM; type: biochemical; details: CaNDY 1 µM relative to DMSO
# T14 construct: purchased Carna Biosciences
# [16] = target: T15, PLK1 (Homo sapiens, UniProt P53350); assay: Kinase panel, CaNDY 1 µM; type: biochemical; details: CaNDY 1 µM relative to DMSO
# T15 construct: purchased Carna Biosciences
# [17] = target: T16, TRKA (Homo sapiens, UniProt P04629); assay: Kinase panel, CaNDY 1 µM; type: biochemical; details: CaNDY 1 µM relative to DMSO
# T16 construct: purchased Carna Biosciences
# [18] = target: T17, TRKC (Homo sapiens, UniProt Q16288); assay: Kinase panel, CaNDY 1 µM; type: biochemical; details: CaNDY 1 µM relative to DMSO
# T17 construct: purchased Carna Biosciences
# [19] = target: T18, PKCα (Homo sapiens, UniProt P17252); assay: Kinase panel, CaNDY 1 µM; type: biochemical; details: CaNDY 1 µM relative to DMSO
# T18 construct: purchased Carna Biosciences
# [20] = target: T19, PHKG2 (Homo sapiens, UniProt P15735); assay: Kinase panel, CaNDY 1 µM; type: biochemical; details: CaNDY 1 µM relative to DMSO
# T19 construct: purchased Carna Biosciences
# [21] = target: T20, PIM2 (Homo sapiens, UniProt Q9P1W9); assay: Kinase panel, CaNDY 1 µM; type: biochemical; details: CaNDY 1 µM relative to DMSO
# T20 construct: purchased Carna Biosciences
# T13 sequence (P49760 whole entry): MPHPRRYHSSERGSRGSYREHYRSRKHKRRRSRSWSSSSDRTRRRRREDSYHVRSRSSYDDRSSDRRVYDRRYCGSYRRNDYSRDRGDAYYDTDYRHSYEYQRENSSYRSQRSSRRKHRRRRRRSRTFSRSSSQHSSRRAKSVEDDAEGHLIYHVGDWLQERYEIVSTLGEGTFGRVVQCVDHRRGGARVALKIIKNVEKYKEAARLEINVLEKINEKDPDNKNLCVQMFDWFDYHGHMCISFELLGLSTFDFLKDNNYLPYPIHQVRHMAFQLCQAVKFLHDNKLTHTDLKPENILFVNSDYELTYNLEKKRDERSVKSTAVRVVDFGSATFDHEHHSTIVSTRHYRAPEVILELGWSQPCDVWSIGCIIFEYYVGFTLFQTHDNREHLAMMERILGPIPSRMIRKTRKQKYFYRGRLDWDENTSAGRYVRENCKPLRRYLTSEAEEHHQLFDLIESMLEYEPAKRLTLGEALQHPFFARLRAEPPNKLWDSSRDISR
# T12 sequence (P16234 24-1089 T674I): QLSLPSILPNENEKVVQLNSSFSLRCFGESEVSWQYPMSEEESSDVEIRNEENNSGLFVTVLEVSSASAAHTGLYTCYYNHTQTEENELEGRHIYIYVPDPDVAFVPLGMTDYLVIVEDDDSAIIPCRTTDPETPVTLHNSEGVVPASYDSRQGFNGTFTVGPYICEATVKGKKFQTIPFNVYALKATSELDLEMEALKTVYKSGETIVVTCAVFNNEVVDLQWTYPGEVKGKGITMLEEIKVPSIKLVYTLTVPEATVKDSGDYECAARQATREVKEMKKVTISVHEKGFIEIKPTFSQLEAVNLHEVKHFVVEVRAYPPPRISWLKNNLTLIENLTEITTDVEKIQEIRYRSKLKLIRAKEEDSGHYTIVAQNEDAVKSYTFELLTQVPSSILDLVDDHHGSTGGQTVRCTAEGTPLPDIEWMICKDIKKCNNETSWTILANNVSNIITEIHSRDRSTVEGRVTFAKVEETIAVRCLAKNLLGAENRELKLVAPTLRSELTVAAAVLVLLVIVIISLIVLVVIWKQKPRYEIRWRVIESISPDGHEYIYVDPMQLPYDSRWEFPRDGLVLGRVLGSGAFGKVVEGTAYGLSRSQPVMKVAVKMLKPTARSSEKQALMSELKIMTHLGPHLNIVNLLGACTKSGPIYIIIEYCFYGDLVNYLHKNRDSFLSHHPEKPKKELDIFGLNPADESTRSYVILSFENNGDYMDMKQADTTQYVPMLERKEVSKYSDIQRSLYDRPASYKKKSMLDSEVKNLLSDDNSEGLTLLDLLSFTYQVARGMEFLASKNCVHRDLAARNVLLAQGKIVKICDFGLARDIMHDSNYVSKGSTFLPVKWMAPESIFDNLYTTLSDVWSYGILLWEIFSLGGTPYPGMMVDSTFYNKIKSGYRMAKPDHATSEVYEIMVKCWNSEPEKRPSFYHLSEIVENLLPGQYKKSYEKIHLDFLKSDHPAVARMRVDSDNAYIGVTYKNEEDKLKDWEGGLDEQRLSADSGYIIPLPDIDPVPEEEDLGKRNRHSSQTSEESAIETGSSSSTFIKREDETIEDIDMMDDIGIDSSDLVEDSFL
# T3 sequence (P08922 28-2347): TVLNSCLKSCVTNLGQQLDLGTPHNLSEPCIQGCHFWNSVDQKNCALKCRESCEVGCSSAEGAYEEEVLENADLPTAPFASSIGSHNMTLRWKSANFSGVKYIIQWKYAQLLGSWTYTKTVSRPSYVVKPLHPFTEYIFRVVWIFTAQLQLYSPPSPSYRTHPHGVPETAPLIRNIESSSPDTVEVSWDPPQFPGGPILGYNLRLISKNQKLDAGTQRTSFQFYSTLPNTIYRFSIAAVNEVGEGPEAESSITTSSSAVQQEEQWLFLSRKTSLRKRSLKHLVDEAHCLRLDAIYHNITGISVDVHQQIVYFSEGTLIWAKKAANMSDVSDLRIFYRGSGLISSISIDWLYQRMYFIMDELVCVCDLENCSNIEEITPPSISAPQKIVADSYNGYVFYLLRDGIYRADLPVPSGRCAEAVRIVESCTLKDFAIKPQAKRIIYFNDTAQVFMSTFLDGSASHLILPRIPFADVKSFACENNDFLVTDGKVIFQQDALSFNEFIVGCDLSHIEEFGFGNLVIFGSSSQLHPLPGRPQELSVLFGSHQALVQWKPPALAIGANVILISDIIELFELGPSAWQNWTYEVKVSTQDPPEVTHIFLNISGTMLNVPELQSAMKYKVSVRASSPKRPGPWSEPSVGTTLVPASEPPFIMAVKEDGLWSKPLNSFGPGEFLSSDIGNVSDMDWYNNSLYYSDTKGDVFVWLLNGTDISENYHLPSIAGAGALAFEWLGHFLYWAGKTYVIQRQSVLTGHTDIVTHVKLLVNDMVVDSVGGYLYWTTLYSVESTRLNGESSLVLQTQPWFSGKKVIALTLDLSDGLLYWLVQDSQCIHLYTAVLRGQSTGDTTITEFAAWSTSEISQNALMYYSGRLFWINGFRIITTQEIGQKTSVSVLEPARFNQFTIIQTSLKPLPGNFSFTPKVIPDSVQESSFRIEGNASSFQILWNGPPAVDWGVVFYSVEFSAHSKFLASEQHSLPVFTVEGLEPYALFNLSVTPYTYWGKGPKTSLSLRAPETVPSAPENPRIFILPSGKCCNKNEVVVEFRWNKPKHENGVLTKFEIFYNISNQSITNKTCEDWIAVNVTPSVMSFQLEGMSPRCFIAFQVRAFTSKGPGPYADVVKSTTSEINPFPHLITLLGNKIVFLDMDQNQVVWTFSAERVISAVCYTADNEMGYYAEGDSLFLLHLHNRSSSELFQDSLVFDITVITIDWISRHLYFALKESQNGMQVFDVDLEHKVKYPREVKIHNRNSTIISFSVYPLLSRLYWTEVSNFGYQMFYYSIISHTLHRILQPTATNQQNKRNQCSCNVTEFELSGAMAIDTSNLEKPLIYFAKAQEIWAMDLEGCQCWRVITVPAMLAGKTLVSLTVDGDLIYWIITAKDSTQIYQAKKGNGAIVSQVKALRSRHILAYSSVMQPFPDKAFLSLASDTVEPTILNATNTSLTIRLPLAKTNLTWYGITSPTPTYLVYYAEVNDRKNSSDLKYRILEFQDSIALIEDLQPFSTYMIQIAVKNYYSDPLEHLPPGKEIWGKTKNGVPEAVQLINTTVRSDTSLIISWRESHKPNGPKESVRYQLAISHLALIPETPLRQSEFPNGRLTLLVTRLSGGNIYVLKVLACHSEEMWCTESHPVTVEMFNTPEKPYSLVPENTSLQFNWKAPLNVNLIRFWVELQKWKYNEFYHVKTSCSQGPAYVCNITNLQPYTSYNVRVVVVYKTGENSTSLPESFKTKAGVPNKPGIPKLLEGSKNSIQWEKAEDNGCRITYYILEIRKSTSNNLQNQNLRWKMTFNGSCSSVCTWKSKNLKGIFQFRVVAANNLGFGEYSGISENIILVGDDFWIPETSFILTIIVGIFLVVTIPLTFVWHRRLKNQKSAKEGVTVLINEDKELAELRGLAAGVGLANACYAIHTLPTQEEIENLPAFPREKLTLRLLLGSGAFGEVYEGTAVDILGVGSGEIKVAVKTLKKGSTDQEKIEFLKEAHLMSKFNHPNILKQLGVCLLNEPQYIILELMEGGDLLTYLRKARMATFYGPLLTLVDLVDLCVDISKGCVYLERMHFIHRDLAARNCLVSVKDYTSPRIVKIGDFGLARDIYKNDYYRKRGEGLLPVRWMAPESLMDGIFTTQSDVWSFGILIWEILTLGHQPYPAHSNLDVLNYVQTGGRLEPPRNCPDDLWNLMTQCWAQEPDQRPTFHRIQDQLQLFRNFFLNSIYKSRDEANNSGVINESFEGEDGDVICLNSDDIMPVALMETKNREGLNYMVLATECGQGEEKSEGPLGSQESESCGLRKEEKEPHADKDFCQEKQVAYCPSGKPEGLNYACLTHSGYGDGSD
# T10 sequence (P53778 whole entry): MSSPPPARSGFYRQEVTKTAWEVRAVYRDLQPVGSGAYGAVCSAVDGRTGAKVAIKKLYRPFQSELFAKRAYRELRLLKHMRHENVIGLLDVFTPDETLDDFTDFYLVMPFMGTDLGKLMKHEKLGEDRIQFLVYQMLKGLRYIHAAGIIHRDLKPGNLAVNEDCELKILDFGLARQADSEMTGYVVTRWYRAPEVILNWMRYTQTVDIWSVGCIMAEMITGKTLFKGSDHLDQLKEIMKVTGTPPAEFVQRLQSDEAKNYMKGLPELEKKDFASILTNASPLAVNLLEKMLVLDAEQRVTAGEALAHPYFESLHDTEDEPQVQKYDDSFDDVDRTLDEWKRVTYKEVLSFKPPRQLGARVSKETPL
smiles,measurement,setting,value
"[H]/N=C1/NC(=O)C(=Cc2ccc3c(c2)CCO3)S1 [CaNDY, (Z)-5-[(2,3-dihydrobenzofuran-5-yl)methylene]-2-iminothiazolidin-4-one]",pre-accumulated DYRK1A level,[1],did not decrease pre-accumulated DYRK1A
same,remaining activity at 1 µM,[2],98.6%
same,remaining activity at 1 µM,[3],103%
same,remaining activity at 1 µM,[4],101%
same,expression of mRNA coding for DYRK1A,[5],slightly decreased
same,remaining activity at 1 µM,[6],103%
same,remaining activity at 1 µM,[7],92%
same,remaining activity at 1 µM,[8],103%
same,remaining activity at 1 µM,[9],98.6%
same,remaining activity at 1 µM,[10],103%
same,remaining activity at 1 µM,[11],91.4%
same,remaining activity at 1 µM,[12],100%
same,remaining activity at 1 µM,[13],94%
same,inhibition at 1 µM,"[14]; 1 μM CaNDY, read-out: percentage inhibition",> 90%
same,%Activity,[14]; CaNDY 1 µM relative to DMSO,9.0%
same,remaining activity at 1 µM,[15],124%
same,remaining activity at 1 µM,[16],99.2%
same,remaining activity at 1 µM,[17],101%
same,remaining activity at 1 µM,[18],101%
same,remaining activity at 1 µM,[19],82.4%
same,remaining activity at 1 µM,[20],88%
same,remaining activity at 1 µM,[21],71.6%

# — PMC4522657, “Identification of a DYRK1A Inhibitor that Induces Degradation of the Target Kinase using Co-chaperone CDC37 fused with Luciferase nanoKAZ” (Scientific Reports, 2015)
